Values after ≈ are worked out from the molar mass of the structure shown. Active and inactive are the calls of the source. The rule behind the calls is not given here.
Assays:
[1] = system: Mycobacterium tuberculosis; assay: Antitubercular activity against Mycobacterium tuberculosis H37Rv after 2 weeks by proportion method; type: functional; conditions: 336 h
[2] = system: P388; assay: Growth inhibition of mouse P388 cells; type: functional, cell-based

CC[C@@H](CO)NCCN[C@@H](CC)CO [ETHAMBUTOL]
MIC [1]: 6.25 µg/mL (≈ 30.6 µM)

C=C1CC[C@H]2O[C@]2(C)[C@H](O)C[C@@H]2[C@@H]1CC2(C)C [SUBEROSOL B]
growth inhibition (GI) [2]: Active
MIC [1]: 28.9 µg/mL (≈ 122 µM)

COC(=O)[C@@H]1C=C[C@@H]2C[C@H]3[C@H](CCCCCCCc4ccccc4)[C@H]4C=C[C@@H]1[C@@H]2[C@H]43 [ERYTHROPHLOIN C]
MIC [1]: 50 µg/mL (≈ 124 µM)
